Experimental data reported in ChEMBL document CHEMBL3045794, “Antimicrobial activity of thiazolyl benzenesulfonamide-condensed 2,4-thiazolidinediones derivatives” (2013).
Values after ≈ are worked out from the molar mass of the structure shown.

Experiments:
Staphylococcus aureus [1] = test: Antibacterial activity against Staphylococcus aureus MTCC 96 assessed as growth inhibition after 24 hr by Kirby-Bauer disk diffusion method; assay type: functional; details: MTCC 96, 24 h
Bacillus subtilis [2] = test: Antibacterial activity against Bacillus subtilis MTCC 619 assessed as diameter of growth inhibition zone after 24 hr by Kirby-Bauer disk diffusion method; assay type: functional
Escherichia coli [3] = test: Antibacterial activity against Escherichia coli MTCC 739 assessed as growth inhibition after 24 hr by Kirby-Bauer disk diffusion method; assay type: functional; details: MTCC 739, 24 h
Pseudomonas aeruginosa [4] = test: Antibacterial activity against Pseudomonas aeruginosa MTCC 741 assessed as diameter of growth inhibition zone after 24 hr by Kirby-Bauer disk diffusion method; assay type: functional
[5] = system: Mycobacterium tuberculosis; test: Antitubercular activity against Mycobacterium tuberculosis H37Rv MTCC 200 assessed as growth inhibition measured within 10 days by BACTEC MGIT method; assay type: functional; details: H37Rv MTCC 200, 240 h
Pseudomonas aeruginosa [6] = test: Antibacterial activity against Pseudomonas aeruginosa MTCC 741 assessed as growth inhibition after 24 hr by Kirby-Bauer disk diffusion method; assay type: functional; details: MTCC 741, 24 h
Staphylococcus aureus [7] = test: Antibacterial activity against Staphylococcus aureus MTCC 96 assessed as diameter of growth inhibition zone after 24 hr by Kirby-Bauer disk diffusion method; assay type: functional
Bacillus subtilis [8] = test: Antibacterial activity against Bacillus subtilis MTCC 619 assessed as growth inhibition after 24 hr by Kirby-Bauer disk diffusion method; assay type: functional; details: MTCC 619, 24 h
Escherichia coli [9] = test: Antibacterial activity against Escherichia coli MTCC 739 assessed as diameter of growth inhibition zone after 24 hr by Kirby-Bauer disk diffusion method; assay type: functional
Pseudomonas aeruginosa [10] = test: microbe, parasite or virus in culture; details: MTCC 741, 24 h, read-out: DIZ
Description: Antibacterial activity against Pseudomonas aeruginosa MTCC 741 assessed as diameter of growth inhibition zone at 100 ug/disk after 24 hr by Kirby-Bauer disk diffusion method

Bacillus subtilis [11] = test: microbe, parasite or virus in culture; details: MTCC 619, 24 h, read-out: DIZ
Description: Antibacterial activity against Bacillus subtilis MTCC 619 assessed as diameter of growth inhibition zone at 100 ug/disk after 24 hr by Kirby-Bauer disk diffusion method

Escherichia coli [12] = test: microbe, parasite or virus in culture; details: MTCC 739, 24 h, read-out: DIZ
Description: Antibacterial activity against Escherichia coli MTCC 739 assessed as diameter of growth inhibition zone at 100 ug/disk after 24 hr by Kirby-Bauer disk diffusion method

Staphylococcus aureus [13] = test: Antibacterial activity against Staphylococcus aureus MTCC 96 assessed as diameter of growth inhibition zone at 100 ug/disk after 24 hr by Kirby-Bauer disk diffusion method; details: MTCC 96, 24 h, read-out: DIZ

Cc1cccc(C(=O)N2C(=O)S/C(=C\c3ccc(S(=O)(=O)Nc4nc(-c5ccccc5)cs4)cc3)C2=O)c1
MIC (Staphylococcus aureus [1]): 100 µg/mL (≈ 178 µM) | diameter of the inhibition zone (DIZ) (Bacillus subtilis [2]): 18 mm | MIC (Escherichia coli [3]): 100 µg/mL (≈ 178 µM) | diameter of the inhibition zone (DIZ) (Pseudomonas aeruginosa [4]): 19 mm | MIC99 [5]: 125 µg/mL (≈ 223 µM) | MIC (Pseudomonas aeruginosa [6]): 100 µg/mL (≈ 178 µM) | diameter of the inhibition zone (DIZ) (Staphylococcus aureus [7]): 18 mm | MIC (Bacillus subtilis [8]): 100 µg/mL (≈ 178 µM) | diameter of the inhibition zone (DIZ) (Escherichia coli [9]): 18 mm

Cc1ccc(C(=O)N2C(=O)S/C(=C\c3ccc(S(=O)(=O)Nc4nc(-c5ccccc5)cs4)cc3)C2=O)cc1
MIC (Staphylococcus aureus [1]): 50 µg/mL (≈ 89 µM) | diameter of the inhibition zone (DIZ) (Bacillus subtilis [2]): 23 mm | MIC (Escherichia coli [3]): 50 µg/mL (≈ 89 µM) | diameter of the inhibition zone (DIZ) (Pseudomonas aeruginosa [4]): 22 mm | MIC99 [5]: 250 µg/mL (≈ 445 µM) | MIC (Pseudomonas aeruginosa [6]): 50 µg/mL (≈ 89 µM) | diameter of the inhibition zone (DIZ) (Staphylococcus aureus [7]): 22 mm | MIC (Bacillus subtilis [8]): 50 µg/mL (≈ 89 µM) | diameter of the inhibition zone (DIZ) (Escherichia coli [9]): 22 mm

O=C1S/C(=C\c2ccc(S(=O)(=O)Nc3nc(-c4ccccc4)cs3)cc2)C(=O)N1C(=O)c1ccccc1Cl
MIC (Staphylococcus aureus [1]): 6.25 µg/mL (≈ 10.7 µM) | diameter of the inhibition zone (DIZ) (Bacillus subtilis [2]): 26 mm | MIC (Escherichia coli [3]): 12.5 µg/mL (≈ 21.5 µM) | diameter of the inhibition zone (DIZ) (Pseudomonas aeruginosa [4]): 24 mm | MIC99 [5]: 62.5 µg/mL (≈ 107 µM) | MIC (Pseudomonas aeruginosa [6]): 12.5 µg/mL (≈ 21.5 µM) | diameter of the inhibition zone (DIZ) (Staphylococcus aureus [7]): 24 mm | MIC (Bacillus subtilis [8]): 6.25 µg/mL (≈ 10.7 µM) | diameter of the inhibition zone (DIZ) (Escherichia coli [9]): 25 mm

O=C1S/C(=C\c2ccc(S(=O)(=O)Nc3nc(-c4ccccc4)cs3)cc2)C(=O)N1C(=O)c1cccc(Cl)c1
MIC (Staphylococcus aureus [1]): 12.5 µg/mL (≈ 21.5 µM) | diameter of the inhibition zone (DIZ) (Bacillus subtilis [2]): 25 mm | MIC (Escherichia coli [3]): 25 µg/mL (≈ 42.9 µM) | diameter of the inhibition zone (DIZ) (Pseudomonas aeruginosa [4]): 24 mm | MIC99 [5]: 62.5 µg/mL (≈ 107 µM) | MIC (Pseudomonas aeruginosa [6]): 25 µg/mL (≈ 42.9 µM) | diameter of the inhibition zone (DIZ) (Staphylococcus aureus [7]): 26 mm | MIC (Bacillus subtilis [8]): 12.5 µg/mL (≈ 21.5 µM) | diameter of the inhibition zone (DIZ) (Escherichia coli [9]): 24 mm

O=C1S/C(=C\c2ccc(S(=O)(=O)Nc3nc(-c4ccccc4)cs3)cc2)C(=O)N1C(=O)c1ccc(Cl)cc1
MIC (Staphylococcus aureus [1]): 6.25 µg/mL (≈ 10.7 µM) | diameter of the inhibition zone (DIZ) (Bacillus subtilis [2]): 26 mm | MIC (Escherichia coli [3]): 25 µg/mL (≈ 42.9 µM) | diameter of the inhibition zone (DIZ) (Pseudomonas aeruginosa [4]): 22 mm | MIC99 [5]: 62.5 µg/mL (≈ 107 µM) | MIC (Pseudomonas aeruginosa [6]): 12.5 µg/mL (≈ 21.5 µM) | diameter of the inhibition zone (DIZ) (Staphylococcus aureus [7]): 24 mm | MIC (Bacillus subtilis [8]): 6.25 µg/mL (≈ 10.7 µM) | diameter of the inhibition zone (DIZ) (Escherichia coli [9]): 23 mm

O=C1S/C(=C\c2ccc(S(=O)(=O)Nc3nc(-c4ccccc4)cs3)cc2)C(=O)N1C(=O)c1cccc([N+](=O)[O-])c1
MIC (Staphylococcus aureus [1]): 62.5 µg/mL (≈ 105 µM) | diameter of the inhibition zone (DIZ) (Bacillus subtilis [2]): 24 mm | MIC (Escherichia coli [3]): 62.5 µg/mL (≈ 105 µM) | diameter of the inhibition zone (DIZ) (Pseudomonas aeruginosa [4]): 22 mm | MIC99 [5]: 1000 µg/mL (≈ 1690 µM) | MIC (Pseudomonas aeruginosa [6]): 62.5 µg/mL (≈ 105 µM) | diameter of the inhibition zone (DIZ) (Staphylococcus aureus [7]): 21 mm | MIC (Bacillus subtilis [8]): 25 µg/mL (≈ 42.2 µM) | diameter of the inhibition zone (DIZ) (Escherichia coli [9]): 22 mm

O=C1S/C(=C\c2ccc(S(=O)(=O)Nc3nc(-c4ccccc4)cs3)cc2)C(=O)N1C(=O)c1ccc([N+](=O)[O-])cc1
MIC (Staphylococcus aureus [1]): 25 µg/mL (≈ 42.2 µM) | diameter of the inhibition zone (DIZ) (Bacillus subtilis [2]): 24 mm | MIC (Escherichia coli [3]): 50 µg/mL (≈ 84.4 µM) | diameter of the inhibition zone (DIZ) (Pseudomonas aeruginosa [4]): 24 mm | MIC99 [5]: 500 µg/mL (≈ 844 µM) | MIC (Pseudomonas aeruginosa [6]): 25 µg/mL (≈ 42.2 µM) | diameter of the inhibition zone (DIZ) (Staphylococcus aureus [7]): 25 mm | MIC (Bacillus subtilis [8]): 12.5 µg/mL (≈ 21.1 µM) | diameter of the inhibition zone (DIZ) (Escherichia coli [9]): 24 mm

O=C1S/C(=C\c2ccc(S(=O)(=O)Nc3nc(-c4ccccc4)cs3)cc2)C(=O)N1C(=O)c1ccc([N+](=O)[O-])cc1[N+](=O)[O-]
MIC (Staphylococcus aureus [1]): 12.5 µg/mL (≈ 19.6 µM) | diameter of the inhibition zone (DIZ) (Bacillus subtilis [2]): 22 mm | MIC (Escherichia coli [3]): 12.5 µg/mL (≈ 19.6 µM) | diameter of the inhibition zone (DIZ) (Pseudomonas aeruginosa [4]): 22 mm | MIC99 [5]: 1000 µg/mL (≈ 1570 µM) | MIC (Pseudomonas aeruginosa [6]): 100 µg/mL (≈ 157 µM) | diameter of the inhibition zone (DIZ) (Staphylococcus aureus [7]): 23 mm | MIC (Bacillus subtilis [8]): 6.25 µg/mL (≈ 9.8 µM) | diameter of the inhibition zone (DIZ) (Escherichia coli [9]): 24 mm

O=C1S/C(=C\c2ccc(S(=O)(=O)Nc3nc(-c4ccccc4)cs3)cc2)C(=O)N1C(=O)c1ccccc1
MIC (Staphylococcus aureus [1]): 62.5 µg/mL (≈ 114 µM) | diameter of the inhibition zone (DIZ) (Bacillus subtilis [2]): 24 mm | MIC (Escherichia coli [3]): 62.5 µg/mL (≈ 114 µM) | diameter of the inhibition zone (DIZ) (Pseudomonas aeruginosa [4]): 22 mm | MIC99 [5]: 125 µg/mL (≈ 228 µM) | MIC (Pseudomonas aeruginosa [6]): 62.5 µg/mL (≈ 114 µM) | diameter of the inhibition zone (DIZ) (Staphylococcus aureus [7]): 21 mm | MIC (Bacillus subtilis [8]): 25 µg/mL (≈ 45.7 µM) | diameter of the inhibition zone (DIZ) (Escherichia coli [9]): 22 mm

O=C(O)c1cn(C2CC2)c2cc(N3CCNCC3)c(F)cc2c1=O [CIPROFLOXACIN]
zone of inhibition at 100 µg/disc (Pseudomonas aeruginosa [10]): 31 mm | MIC (Staphylococcus aureus [1]): ≤ 1 µg/mL | MIC (Escherichia coli [3]): ≤ 1 µg/mL | zone of inhibition at 100 µg/disc (Bacillus subtilis [11]): 33 mm | MIC (Pseudomonas aeruginosa [6]): ≤ 1 µg/mL | zone of inhibition at 100 µg/disc (Escherichia coli [12]): 30 mm | MIC (Bacillus subtilis [8]): ≤ 1 µg/mL | zone of inhibition at 100 µg/disc (Staphylococcus aureus [13]): 32 mm

NNC(=O)c1ccncc1 [ISONIAZID]
MIC99 [5]: 0.2 µg/mL (≈ 1.46 µM)
